Experimental data published in ChEMBL document CHEMBL1250443, “Microarray-based method for monitoring yeast overexpression strains reveals small-molecule targets in TOR pathway” (Nat Chem Biol, 2006).
pIC50: −log10 of the molar value.

Experiments:
Saccharomyces cerevisiae [1] = assay: Decrease of YJL051W gene expression in wild-type Saccharomyces cerevisiae transformed with overexpression plasmids by microarray; format: functional
Saccharomyces cerevisiae [2] = assay: Decrease of YKR75C gene expression in wild-type Saccharomyces cerevisiae transformed with overexpression plasmids by microarray; format: functional
Saccharomyces cerevisiae [3] = assay: Increase of FMP38 gene expression in wild-type Saccharomyces cerevisiae transformed with overexpression plasmids by microarray; format: functional
[4] = molecular target: T1, Translation factor GUF1, mitochondrial (Saccharomyces cerevisiae S288c, UniProt P46943); assay: Inhibition of yeast Guf1
T1 sequence (P46943 whole entry): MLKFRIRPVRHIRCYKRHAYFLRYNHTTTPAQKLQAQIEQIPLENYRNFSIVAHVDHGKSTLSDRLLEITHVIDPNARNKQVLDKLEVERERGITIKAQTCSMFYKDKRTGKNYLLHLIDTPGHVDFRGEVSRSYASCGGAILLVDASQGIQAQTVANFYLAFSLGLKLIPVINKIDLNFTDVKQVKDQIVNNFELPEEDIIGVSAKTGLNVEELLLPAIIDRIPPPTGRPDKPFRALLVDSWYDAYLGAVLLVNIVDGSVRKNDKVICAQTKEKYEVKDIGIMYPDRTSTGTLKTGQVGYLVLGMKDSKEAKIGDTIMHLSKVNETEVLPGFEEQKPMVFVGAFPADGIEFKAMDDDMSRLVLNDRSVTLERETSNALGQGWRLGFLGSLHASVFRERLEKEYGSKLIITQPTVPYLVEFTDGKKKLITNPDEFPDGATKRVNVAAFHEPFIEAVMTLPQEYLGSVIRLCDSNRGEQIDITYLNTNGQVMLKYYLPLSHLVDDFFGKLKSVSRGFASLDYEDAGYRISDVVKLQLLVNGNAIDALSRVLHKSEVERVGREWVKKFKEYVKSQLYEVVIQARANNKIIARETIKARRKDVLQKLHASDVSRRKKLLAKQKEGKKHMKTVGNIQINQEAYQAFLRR

Saccharomyces cerevisiae [5] = assay: Increase of MAM1 gene expression in wild-type Saccharomyces cerevisiae transformed with overexpression plasmids by microarray; format: functional
Saccharomyces cerevisiae [6] = assay: Decrease of RIM11 gene expression in wild-type Saccharomyces cerevisiae transformed with overexpression plasmids by microarray; format: functional
Saccharomyces cerevisiae [7] = assay: Increase of SUV3 gene expression in wild-type Saccharomyces cerevisiae transformed with overexpression plasmids by microarray; format: functional
Saccharomyces cerevisiae [8] = assay: Increase of MDL1 gene expression in wild-type Saccharomyces cerevisiae transformed with overexpression plasmids by microarray; format: functional
Saccharomyces cerevisiae [9] = assay: Decrease of SGN1 gene expression in wild-type Saccharomyces cerevisiae transformed with overexpression plasmids by microarray; format: functional
Saccharomyces cerevisiae [10] = assay: Increase of YDR514C gene expression in wild-type Saccharomyces cerevisiae transformed with overexpression plasmids by microarray; format: functional
Saccharomyces cerevisiae [11] = assay: Decrease of FET4 gene expression in wild-type Saccharomyces cerevisiae transformed with overexpression plasmids by microarray; format: functional
Saccharomyces cerevisiae [12] = assay: Increase of MRPS28 gene expression in wild-type Saccharomyces cerevisiae transformed with overexpression plasmids by microarray; format: functional
Saccharomyces cerevisiae [13] = assay: Increase of HMI1 gene expression in wild-type Saccharomyces cerevisiae transformed with overexpression plasmids by microarray; format: functional
Saccharomyces cerevisiae [14] = assay: Decrease of YMD8 gene expression in wild-type Saccharomyces cerevisiae transformed with overexpression plasmids by microarray; format: functional
Saccharomyces cerevisiae [15] = assay: Decrease of YDR222W gene expression in wild-type Saccharomyces cerevisiae transformed with overexpression plasmids by microarray; format: functional
Saccharomyces cerevisiae [16] = assay: Increase of PET111 gene expression in wild-type Saccharomyces cerevisiae transformed with overexpression plasmids by microarray; format: functional
Saccharomyces cerevisiae [17] = assay: Increase of YRR1 gene expression in wild-type Saccharomyces cerevisiae transformed with overexpression plasmids by microarray; format: functional
Saccharomyces cerevisiae [18] = assay: Decrease of HOS1 gene expression in wild-type Saccharomyces cerevisiae transformed with overexpression plasmids by microarray; format: functional
Saccharomyces cerevisiae [19] = assay: Increase of GUF1 gene expression in wild-type Saccharomyces cerevisiae transformed with overexpression plasmids by microarray; format: functional

For `O=C1C(Nc2ccccc2)=CC(=O)c2ncccc21`, the “fold change (FC)” value (Saccharomyces cerevisiae [1]) was -2.1, the “fold change (FC)” value (Saccharomyces cerevisiae [2]) was -2.1 and the “fold change (FC)” value (Saccharomyces cerevisiae [3]) was 3.1. For the same compound, the pIC50 [4] was 3.52, the “fold change (FC)” value (Saccharomyces cerevisiae [5]) was 2.1 and the “fold change (FC)” value (Saccharomyces cerevisiae [6]) was -3.3. For the same compound, the “fold change (FC)” value (Saccharomyces cerevisiae [7]) was 2.4, the “fold change (FC)” value (Saccharomyces cerevisiae [8]) was 2.2 and the “fold change (FC)” value (Saccharomyces cerevisiae [9]) was -2.1. The “fold change (FC)” value (Saccharomyces cerevisiae [10]) was 2.7, the “fold change (FC)” value (Saccharomyces cerevisiae [11]) was -4.3 and the “fold change (FC)” value (Saccharomyces cerevisiae [12]) was 2.1. The “fold change (FC)” value (Saccharomyces cerevisiae [13]) was 2.9, the “fold change (FC)” value (Saccharomyces cerevisiae [14]) was -2 and the “fold change (FC)” value (Saccharomyces cerevisiae [15]) was -2.4. For the same compound, the “fold change (FC)” value (Saccharomyces cerevisiae [16]) was 2.3, the “fold change (FC)” value (Saccharomyces cerevisiae [17]) was 2.8 and the “fold change (FC)” value (Saccharomyces cerevisiae [18]) was -2.4. The “fold change (FC)” value (Saccharomyces cerevisiae [19]) was 5.
